Data reported in patent US20240139185A1, “COMPOUNDS THAT PARTICIPATE IN COOPERATIVE BINDING AND USES THEREOF” (Revolution Medicines, Inc., priority 2018, published 2024).

Legend:
pERK in H358 cells = experiment: pERK inhibition in H358 cells; type: cell-based, human; conditions: 4 hours treatment, read-out: Cellular pERK inhibition
Description: H358 cells (5500 cells) derived from a human lung cancer were plated in a 96 well plate in media (100 uL, RPMI with 10% FBS). After 24 hours, cells were treated for 4 hours with compound or DMSO. Cells were washed twice with room temperature TBS (200 uL) and fixed for 20 minutes with 4% paraformaldehyde diluted with TBS (150 uL). Cells were washed four times for five minutes with 0.1% TritonX/TBS (150 uL) to permeabilize the membrane. Cells were incubated with TBS blocking buffer (100 uL) at room temperature for 60 minutes. Primary antibody (Phospho-p44/42 MAPK (Erk1/2) (Thr202/Tyr204) (D13.14.4E) XP® Rabbit mAb #4370, Cell Signaling Technology; 1:200) was added, and the cells were incubated overnight at 4 C. The cells were washed four times for five minutes with 0.1% Tween 20/TBS (150 uL). Secondary antibody (IRDye® 800CW Goat-Anti-Rabbit IgG, Li-Cor Biosciences; 1:1000) and DRAQ5™ (Invitrogen; 1:2000) was added, and the cells were incubated for 1 hour at room temperature. The cells were washed four times for five minutes with 0.1% Tween 20/TBS (150 uL) and scanned using the LICOR (700 and 800 nm).

[1] = biological target: T1, BRAF-GTP-KRAS-G12C complex (Homo sapiens, UniProt P01116+P62937, G12C); experiment: KRAS-BRAF complex disruption through competition with CYPA-compound by TR-FRET; conditions: biochemical BRAF-KRAS G12C-GTP disruption assay EC50, with CYPA
T1 construct: 50 nM of His6-KRas G12C-GTP (1-169); 500 nM of tagless CypA (1-165)
Summary of the method: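 His6-KRAS G12C-GTP (1-169, 50 nM) with tagless CypA (1-165, 500 nM) was incubated with compound for 3 h at room temperature in pH 7.3 Hepes/NaCl/MgCl2 buffer containing GST-BRAF RBD. Anti-His Eu (10 nM) and anti-GST APC (50 nM) were then added for 1.5 h, and the 665/615 nm TR-FRET ratio was read. EC50 from 4-parameter fit; for specificity, wild-type KRAS replaced G12C, and CypA was omitted to test presenter dependence.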

cyclophilin A (CYPA) = cyclophilin A (CYPA) (Homo sapiens, UniProt P62937); experiment: CYPA-compound binary complex formation by SPR; conditions: read-out: CYPA Binding Affinity
Summary of the method: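 CypA-Avi captured on a Biotin CAPture chip (4 μg/ml), reference flow cell subtracted. Compounds injected as 10-point 2-fold dilutions from 50 μM in HBS-P+ pH7.4 with 2% DMSO; 60 s association and 60 s dissociation, solvent-corrected. Affinity obtained by steady-state fitting.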

Compound | IC50 (pERK in H358 cells) [µM] | EC50 [1] [µM] | Kd (cyclophilin A (CYPA)) [µM]
CC1COC(=O)C2CCCN(N2)C(=O)C(NC(=O)C(C(C)C)N(C)C(=O)C2CN(C(=O)CCl)C2)Cc2cc(O)cc(c2)-c2ccc3c(c2)N(C1)CC3(C)CCC#N (mixture of isomers) [Compound 225] | 1 to 10 | ≤ 0.5 | ≤ 5
CC(C)[C@@H](C(=O)N[C@H]1Cc2cc(O)cc(c2)-c2ccc3c(c2)n(c(=O)n3C)CC(C)(C)COC(=O)[C@@H]2CCCN(N2)C1=O)N(C)C(=O)C1CN(C(=O)CCl)C1 [Compound 189] | ≤ 1 | ≤ 0.5 | ≤ 5
CC(C)[C@@H](C(=O)N[C@H]1Cc2cc(O)cc(c2)-c2ccc3c(C(C)(C)C#N)cn(c3c2)C[C@H](C)COC(=O)[C@@H]2CCCN(N2)C1=O)N1CC[C@@H](NC(=O)CCl)C1=O [Compound 28] | > 10 | 0.5 to 5 | ≤ 5
C=CC(=O)N1CCC1C(=O)N(C)C(C(=O)NC1Cc2cc(O)cc(c2)-c2ccc3c(C(F)F)nn(c3c2)CC(C)COC(=O)C2CCCN(N2)C1=O)C(C)C (stereo not drawn) [Compound 203] | > 10 | > 5 | > 15
CC(C)[C@@H](C(=O)N[C@H]1Cc2cc(O)cc(c2)-c2ccc3c(C(C)(C)C#N)cn(c3c2)C[C@H](C)COC(=O)[C@@H]2CCCN(N2)C1=O)N1CC[C@@H](N(C)C(=O)CCl)C1=O [Compound 30] | 1 to 10 | 0.5 to 5 | ≤ 5
CCN1C(=O)CCN2C[C@H](C)COC(=O)[C@@H]3CCCN(N3)C(=O)[C@@H](NC(=O)[C@H](C(C)C)N(C)C(=O)C3CN(C(=O)CCl)C3)Cc3cc(O)cc(c3)-c3ccc1c2c3 [Compound 188] | > 10 | > 5 | ≤ 5
CC1COC(=O)[C@@H]2CCCN(N2)C(=O)[C@@H](NC(=O)[C@H](C(C)C)N(C)C(=O)C2CN(C(=O)CCl)C2)Cc2cc(O)cc(c2)-c2ccc3c(c2)N(CCO3)C1 (single isomer, unassigned) [Compound 183] | 1 to 10 | 0.5 to 5 | 5 to 15
CC#CC(=O)N1CCN(C(=O)N(C)[C@H](C(=O)N[C@H]2Cc3cc(O)cc(c3)-c3ccc4c(C(C)(C)C#N)cn(c4c3)CC(C)(C)COC(=O)[C@@H]3CCCN(N3)C2=O)C(C)C)CC1 [Compound 343] | 1 to 10 | 0.5 to 5 | ≤ 5
CC(C)[C@@H](C(=O)N[C@H]1Cc2cc(O)cc(c2)-c2ccc3c(C4(C#N)CCC4)cn(c3c2)C[C@H](C)COC(=O)[C@@H]2CCCN(N2)C1=O)N(C)C(=O)C1CN(C(=O)CCl)C1 [Compound 81] | ≤ 1 | ≤ 0.5 | 5 to 15
CC(C)[C@@H](C(=O)N[C@H]1Cc2cc(O)cc(c2)-c2ccc3c(c2)N(CC(C)(C)COC(=O)[C@@H]2CCCN(N2)C1=O)C(=O)C3)N(C)C(=O)C1CN(C(=O)CCl)C1 [Compound 177] | 1 to 10 | ≤ 0.5 | 5 to 15
C=CC(=O)N1CCCC1C(=O)N(C)C(C(=O)NC1Cc2cc(O)cc(c2)-c2ccc3c(C(F)F)nn(c3c2)CC(C)COC(=O)C2CCCN(N2)C1=O)C(C)C (stereo not drawn) [Compound 205] | > 10 | > 5 | > 15
C=CC(=O)N1CCC(C(=O)N(C)C(C(=O)NC2Cc3cc(O)cc(c3)-c3ccc4c(c3)N(CC(C)COC(=O)C3CCCN(N3)C2=O)CC4(C)C(C)=O)C(C)C)C1 (stereo not drawn) [Compound 391] | > 10 | > 5 | ≤ 5
C=CS(=O)(=O)N1CCN([C@H](C(=O)N[C@H]2Cc3cc(O)cc(c3)-c3ccc4nc(C)n(c4c3)CC(C)(C)COC(=O)[C@@H]3CCCN(N3)C2=O)C(C)C)C1=O [Compound 152] | 1 to 10 | ≤ 0.5 | 5 to 15
CC(C)[C@@H](C(=O)N[C@H]1Cc2cc(O)cc(n2)-c2ccc3c(C(C)(C)C#N)cn(c3c2)C[C@H](C)COC(=O)[C@@H]2CCCN(N2)C1=O)N(C)C(=O)C1CN(C(=O)CCl)C1 [Compound 59] | > 10 | > 5 | > 15
